Assay results: paper PMC4694998, “Suppression of β-catenin/TCF transcriptional activity and colon tumor cell growth by dual inhibition of PDE5 and 10” (Oncotarget, 2015)
Where two headings read alike, the source gives them in different places.

Legend:
[1] = test system: β-catenin signaling in HCT116 colon tumor cells; assay: Western blotting of β-catenin, cyclin D1, survivin, HCT116; type: cell-based, human
Procedure: Western blotting was performed as described previously. Cells were treated with ADT-094 or vehicle for 8 hours before cell lysates were collected.

[2] = test system: NCM460 normal colonocytes; details: as previously reported; cited from earlier work
[3] = test system: cGMP PDE activity in HCT116 lysates; assay: cGMP hydrolysis in lysates from HCT116 colon tumor cells; type: biochemical, human; details: in words, Figure 1C
Procedure: (§1) PDE activity was measured using the IMAP fluorescence polarization (FP) PDE assay (Molecular Devices) in which binding of hydrolyzed fluorescent cyclic nucleotide substrate to the IMAP reagent increases FP as described previously.

[4] = test system: β-catenin/TCF transcriptional activity in HCT116 cells; type: cell-based; details: HCT116, 24 hours of treatment
Procedure: Cells were seeded at a density of 5 × 10^4 cells per well in 24-well tissue culture plates and incubated overnight at 37°C. Cells were transiently transfected with 0.1 μg TOP-FLASH constructs (Millipore) and 0.1 μg β-galactosidase-expressing vector (Promega). After 24 hours of transfection, cells were treated with ADT-094 or vehicle for 24 hours. At the end of treatment, cells were lysed and both luciferase and β-galactosidase activities were measured using kits from Promega. All luciferase activity was normalized to β-galactosidase activity.

HCT116 colon tumor cells = assay: Growth assay (Cell Titer Glo), HCT116; type: cell-based, human; details: for HCT116 colon tumor cell growth: in words, Figure 1B; for IC50: Homo sapiens, HCT-116, 72 h
Procedure: All cell lines were expanded upon delivery, and numerous aliquots of low passage cells were preserved in liquid N2. Cells were passaged no longer than 2 months. Tumor cell lines obtained from ATCC were characterized by STR profiling as performed by ATCC. The NCM460 line was characterized by INCELL as described previously (e.g. tumorigenicity testing). No additional re-authentication of the cell lines was performed except for experimental reasons (e.g. confirmation of cell doubling time, morphology, sensitivity to SS, PDE5/10 expression levels, etc). Cells were plated in 96-well microtiter plates at a density of 5,000 cells per well. For drug treatment, cells were treated with compound or vehicle, and incubated at 37°C for 72 hours. […] For siRNA assays, cells were transfected with siRNA under the same condition described above. The effect of treatment on cell growth was measured using the Cell Titer Glo Assay as specified by the manufacturer (Promega). The IC50 values were determined as described previously. All experiments were repeated a minimum of three times to determine the reproducibility of the results. All error bars represent standard error of the mean (SEM). Statistical analysis of differences between samples was performed using the Student’s t-test.

PDE10 = target: T1, PDE10 (Homo sapiens, UniProt Q9Y233); assay: IMAP fluorescence polarization PDE assay, recombinant PDE10; type: biochemical; details: recombinant enzyme
T1 construct: purchased BPS Biosciences
T1 sequence (Q9Y233 267-1055): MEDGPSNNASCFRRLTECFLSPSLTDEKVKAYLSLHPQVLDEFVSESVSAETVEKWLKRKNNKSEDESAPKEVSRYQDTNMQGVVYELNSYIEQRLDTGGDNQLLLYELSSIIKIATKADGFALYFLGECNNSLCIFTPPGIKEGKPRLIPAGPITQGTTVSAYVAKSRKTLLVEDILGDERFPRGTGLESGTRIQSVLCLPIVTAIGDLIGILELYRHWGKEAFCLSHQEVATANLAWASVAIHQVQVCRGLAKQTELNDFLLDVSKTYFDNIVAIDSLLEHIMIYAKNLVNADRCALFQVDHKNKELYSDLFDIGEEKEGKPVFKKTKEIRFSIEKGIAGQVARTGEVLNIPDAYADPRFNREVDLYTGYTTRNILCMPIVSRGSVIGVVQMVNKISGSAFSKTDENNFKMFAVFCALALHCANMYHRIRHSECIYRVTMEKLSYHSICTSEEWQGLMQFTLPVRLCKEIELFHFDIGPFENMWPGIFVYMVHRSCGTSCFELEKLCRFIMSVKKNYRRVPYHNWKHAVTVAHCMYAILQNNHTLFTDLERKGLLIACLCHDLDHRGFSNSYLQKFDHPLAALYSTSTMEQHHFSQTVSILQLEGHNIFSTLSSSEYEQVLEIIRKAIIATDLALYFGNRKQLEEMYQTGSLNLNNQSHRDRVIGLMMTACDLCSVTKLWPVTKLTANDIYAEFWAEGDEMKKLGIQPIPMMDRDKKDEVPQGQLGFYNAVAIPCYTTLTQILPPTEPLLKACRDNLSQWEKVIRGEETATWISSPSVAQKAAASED
Procedure: (§2) Recombinant PDE isozymes were purchased from BPS Biosciences. The PDE10 antibody was purchased from GeneTex, while the PDE5 antibody was purchased from Cell Signaling Technologies. Non-targeting control siRNA and PDE10 specific siRNAs were purchased from Qiagen. RNAiMAX transfection reagent was purchased from Invitrogen. DMSO was used as vehicle for all compounds unless otherwise noted. All other reagents were purchased from Sigma.
as §1
(§3) The IC50 values were determined as described previously. All experiments were repeated a minimum of three times to determine the reproducibility of the results. All error bars represent standard error of the mean (SEM). Statistical analysis of differences between samples was performed using the Student’s t-test. A P value of < 0.05 was considered statistically significant.

HT29 colon tumor cells = assay: Growth assay (Cell Titer Glo), HT29; type: cell-based; details: Homo sapiens, HT-29, 72 h
Procedure: (§4) Human colon tumor cell lines, HCT116, HT29, SW480 and Caco-2 were obtained from the American Type Culture Collection (ATCC) and grown under standard cell culture conditions in RPMI 1640 medium containing 5% serum at 37°C in a humidified atmosphere with 5% CO2. The human colonocyte line, NCM460, that is derived from normal human colon mucosa was obtained from INCELL and grown in INCELL’s enriched M3:10 medium with 10% serum as recommended by supplier. All cell lines were expanded upon delivery, and numerous aliquots of low passage cells were preserved in liquid N2. Cells were passaged no longer than 2 months. Tumor cell lines obtained from ATCC were characterized by STR profiling as performed by ATCC. The NCM460 line was characterized by INCELL as described previously (e.g. tumorigenicity testing). No additional re-authentication of the cell lines was performed except for experimental reasons (e.g. confirmation of cell doubling time, morphology, sensitivity to SS, PDE5/10 expression levels, etc).
(§5) Cells were plated in 96-well microtiter plates at a density of 5,000 cells per well. For drug treatment, cells were treated with compound or vehicle, and incubated at 37°C for 72 hours. All growth assays were performed in 5% serum unless otherwise noted. Deionized water was used as vehicle control for papaverine. For siRNA assays, cells were transfected with siRNA under the same condition described above. The effect of treatment on cell growth was measured using the Cell Titer Glo Assay as specified by the manufacturer (Promega).
as §3

purified ovine COX-1 = target: T2, purified ovine COX-1 (Ovis aries, UniProt P05979); assay: COX-1 colorimetric assay; type: biochemical
T2 construct: purchased Cayman
T2 sequence (P05979 25-600): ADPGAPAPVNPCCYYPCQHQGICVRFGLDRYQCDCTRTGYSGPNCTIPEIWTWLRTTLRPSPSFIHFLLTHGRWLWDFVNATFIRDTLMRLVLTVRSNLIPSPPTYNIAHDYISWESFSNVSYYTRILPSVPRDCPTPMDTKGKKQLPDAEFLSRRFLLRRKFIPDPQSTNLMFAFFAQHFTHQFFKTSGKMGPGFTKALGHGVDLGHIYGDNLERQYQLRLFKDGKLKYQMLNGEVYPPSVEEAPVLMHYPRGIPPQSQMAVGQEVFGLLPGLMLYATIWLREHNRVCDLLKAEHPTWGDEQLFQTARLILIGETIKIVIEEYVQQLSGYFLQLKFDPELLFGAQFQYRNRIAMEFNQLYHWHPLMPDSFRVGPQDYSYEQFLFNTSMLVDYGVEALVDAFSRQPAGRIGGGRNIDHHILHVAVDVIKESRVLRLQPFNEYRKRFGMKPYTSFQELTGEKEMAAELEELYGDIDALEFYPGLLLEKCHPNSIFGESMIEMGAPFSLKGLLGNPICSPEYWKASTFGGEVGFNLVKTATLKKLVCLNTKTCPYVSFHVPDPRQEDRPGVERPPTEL
Procedure: COX-1 and COX-2 activities were measured using purified ovine COX-1 and COX-2 with colorimetric assay kits obtained from Cayman as previously reported. The activities of COX-1 and COX-2 were measured after the addition of arachidonic acid and incubation at 25°C for 5 min by absorbance at 590 nm as specified by the manufacturer.
as §3

[5] = test system: NCM460 normal colonocytes; assay: Growth assay (Cell Titer Glo), NCM460 normal colonocytes; type: cell-based, human; details: Homo sapiens, NCM460, 72 h, read-out: NCM460 growth IC50
Procedure: as §4, §5, §3

PDE5 = target: T3, PDE5 (Homo sapiens, UniProt O76074); assay: IMAP fluorescence polarization PDE assay, recombinant PDE5; type: biochemical; details: recombinant enzyme
T3 construct: purchased BPS Biosciences
Procedure: as §2, §1, §3

Question: Which expression of survivin [1] does the source give for `COc1ccc(Cc2nccc3cc(OC)c(OC)cc23)cc1OC` [papaverine] here?
Answer: reduced

Question: What about the β-catenin levels [1] of the same compound?
Answer: reduced

Question: And the growth of colonocytes [2]?
Answer: did not significantly affect

Question: And the “cGMP hydrolysis in HCT116 lysates” value [3]?
Answer: inhibited cGMP hydrolysis

Question: What about the β-catenin/TCF transcriptional activity [4] of the same compound?
Answer: reduced

Question: And the “HCT116 colon tumor cell growth” value (HCT116 colon tumor cells)?
Answer: effectively inhibit

Question: For `Clc1cccc(Nc2nnc(-c3ccccc3)c3ccccc23)c1` [MY5445, 1-(3-chlorophenylamino)-4-phenylphthalazine], which expression of survivin [1] is on record?
Answer: reduced

Question: And the β-catenin levels [1]?
Answer: reduced

Question: And the growth of colonocytes [2]?
Answer: did not significantly affect

Question: And the “cGMP hydrolysis in HCT116 lysates” value [3]?
Answer: inhibited cGMP hydrolysis

Question: What about the β-catenin/TCF transcriptional activity [4] of the same compound?
Answer: reduced

Question: And the “HCT116 colon tumor cell growth” value (HCT116 colon tumor cells)?
Answer: effectively inhibit

Question: For `CSc1ccc(/C=C2/C(C)=C(CC(=O)O)c3cc(F)ccc32)cc1` [SS, Sulindac sulfide, reference compound], which IC50 (PDE10) is on record?
Answer: 70 µM

Question: And the IC50 (HT29 colon tumor cells; read-out: HT29 growth IC50, 72 hours of treatment)?
Answer: 68 µM

Question: And the IC50 (HT29 colon tumor cells; read-out: HT29 growth IC50, Figure 3C, luciferase-based ATP assay, 72 hours)?
Answer: 63.8 µM

Question: What about the IC50 (purified ovine COX-1) of the same compound?
Answer: 1.2 µM

Question: What about the IC50 [5] of the same compound?
Answer: > 100 µM

Question: What about the IC50 (PDE5) of the same compound?
Answer: 38 µM

Question: What about the IC50 (HCT116 colon tumor cells; read-out: HCT116 growth IC50, 72 hours of treatment) of the same compound?
Answer: 51 µM

Question: And the IC50 (HCT116 colon tumor cells; read-out: HCT116 growth IC50, Figure 3C, luciferase-based ATP assay, 72 hours)?
Answer: 51.1 µM
